Results from US8735444B2, “Fluorinated rhodamines as photostable fluorescent dyes for labelling and imaging techniques” (Max-Planck-Gesellschaft zur Foerderung der Wissenschaften …, priority 2009, dated 2014).
Like-named read-outs stand apart in the source and are kept apart here. Marks after values point to notes of the source that are not given here.

Assays:
[1] = system: living mammalian cells (PtK2); assay: Membrane-permeation experiments in living cells, epifluorescence microscope; assay type: cell-based; details: for Structures stained in living cells: 15 minutes
Experimental: FIG. 9. Membrane-permeation experiments of the presented dyes. Living mammalian cells (PtK2) were incubated for 15 minutes with a 50 μg dye/ml solution. The subcellular localization of the dye was imaged in an epifluorescence microscope. A: 46-H—CH2 CF3—H—H (16); B: 42-COOH (15); C: 23; D: 37-Me-Me-H (27); E: 42-H (14)-methylester; F: 33-H—H (18).
The most important prerequisite for fluorophores used in these labeling strategies is that sufficient amounts of it need to pass cellular membrane(s) to reach the target protein. In order to asses the permeability of the cell membrane to the fluorescent dyes described in the presented invention, living mammalian cells (PtK2) previously grown overnight on cover slips, were first subjected to either 500 μg dye/ml or 50 μg dye/ml in growth medium for 15 minutes. (The amount of dye used for labeling of SNAP-fusion proteins is below 5 μg dye/ml.) Then, the cells were washed with growth medium (without dye) for 15 minutes, and imaged using an epifluorescence microscope.

[2] = Spectral properties of the fluorinated rhodamines (absorption, emission, quantum yield, lifetime); assay type: physicochemical
Excerpt: Extinction coefficients (of the long wavelength maximum) which are lower than ca. 8×10^4 M^−1 cm^−1 indicate the presence of the closed non-fluorescent form.

[3] = parameters: ε × 10^−4: unit not given beside the values; details: cited from earlier work
[4] = a + b (aqueous buffer at pH 7 + methanol)
[5] = adding methanol to an aqueous buffer
[6] = value for the closed form, methanol
[7] = solvent not stated, spectra pH-dependent at pH < 5

## 2,7-Difluoro-5′(6′)-methoxycarbonyl-N,N,N′,N′-tetramethyl-rhodamine [Compound 28]
[1]; 500 μg dye/ml
  Structures stained in living cells: Red cytoplasmatic and mitochondrial
[2]; [4]
  ABSORPTION λMAX: 558 nm
[2]; [5]
  bathochromic shift in absorption maximum: 23 nm
  bathochromic shift in emission maximum: 35 nm
[2]; aqueous buffer at pH 7
  ABSORPTION ε: 31000 M⁻¹ cm⁻¹
  ABSORPTION λMAX: 525 nm
  EMISSION λMAX: 554 nm
[2]; methanol
  EMISSION λMAX: 589 nm

## 5(6)-carboxyfluorescein [Compound 7]
[3]; H2O, pH = 9
  ε × 10^−4: 7.8^4*
  λem: 517^4* nm
  λmax: 492^4* nm

## 5(6)-carboxyrhodamine 110 [Compound 2]
[3]; MeOH
  ε × 10^−4: 7.8
  λem: 532 nm
  λmax: 504 nm

## 5′ (6′)-Carboxy-2,7-difluoro-4,5-disulforhodamine [Compound 13]
[1]; 50 μg dye/ml
  Structures stained in living cells: Dim cytoplasmatic stain with dots
[1]; 500 μg dye/ml
  Structures stained in living cells: Nearly no stain visible.
[2]; aqueous buffer at pH 7
  ABSORPTION λMAX: 490 nm
  EMISSION λMAX: 514 nm
  ΦFL: 0.97
  τFL: 4.1 ns
[2]; methanol
  ABSORPTION ε: 32000 M⁻¹ cm⁻¹
  ABSORPTION λMAX: 502 nm
  EMISSION λMAX: 517 nm

## 5′ (6′)-Carboxy-2,7-difluoro-N,N′-dimethyl-N,N-bis(2,2,2-trifluoroethyl)rhodamine [Compound 26]
[1]; 500 μg dye/ml
  Structures stained in living cells: Cellular stain visible; bright
[2]; [4]
  ABSORPTION λMAX: 523 nm
[2]; [6]
  ABSORPTION λMAX: 291 nm

## 5′ (6′)-carboxy-2,7-difluoro-N,N′-bis(2,2,2-trifluoroethyl)-rhodamine [Compound 19]
[1]; 50 μg dye/ml
  Structures stained in living cells: Dim cellular stain with dots
[2]; aqueous buffer at pH 7
  ABSORPTION ε: 53000 M⁻¹ cm⁻¹
  ABSORPTION λMAX: 496 nm
  EMISSION λMAX: 522 nm
  ΦFL: 0.89
  τFL: 3.8 ns
[2]; methanol
  ABSORPTION λMAX: 498 nm
  EMISSION λMAX: 520 nm

## 5′(6′)-Carboxy-2,7-difluoro-N,N′-dimethylrhodamine [Compound 24]
[1]; 500 μg dye/ml
  Structures stained in living cells: Cellular stain visible; bright
[2]; aqueous buffer at pH 7
  ABSORPTION λMAX: 515^a, 515^b nm
  EMISSION λMAX: 543 nm
  ΦFL: 0.86
  τFL: 4.1 ns
[2]; methanol
  ABSORPTION ε: 56000 M⁻¹ cm⁻¹
  ABSORPTION λMAX: 515^a, 515^b nm
  EMISSION λMAX: 538 nm

## 5′(6′)-Carboxy-2,7-difluororhodamine [Compound 11]
[1]; 500 μg dye/ml
  Structures stained in living cells: Dye exclusion! No dye within cell
[2]; aqueous buffer at pH 7
  ABSORPTION λMAX: 496 nm
  EMISSION λMAX: 522 nm
  ΦFL: 0.92
  τFL: 4.0 ns
[2]; methanol
  ABSORPTION ε: 50000 M⁻¹ cm⁻¹
  ABSORPTION λMAX: 498 nm
  EMISSION λMAX: 523 nm

## 5′,(6′)-Carboxy-2,7-difluoro-N,N″-bis(2,2,2-trifluoroethyl)-4,5-disulforhodamine [Compound 21]
[1]; 50 μg dye/ml
  Structures stained in living cells: Dim cytoplasmatic stain with dots
[1]; 500 μg dye/ml
  Structures stained in living cells: Cytoplasmatic and mitochondrial
[2]; aqueous buffer at pH 7
  ABSORPTION λMAX: 509 nm
  EMISSION λMAX: 533 nm
  ΦFL: 0.86
  τFL: 3.3 ns
[2]; methanol
  ABSORPTION ε: 42000 M⁻¹ cm⁻¹
  ABSORPTION λMAX: 517 nm
  EMISSION λMAX: 541 nm

## O=C(O)c1ccc2c(c1)C1(OC2=O)c2ccc(NCC(F)(F)F)cc2Oc2cc(NCC(F)(F)F)ccc21 [15 (42-COOH), 5′-Carboxy-N,N′-bis(2,2,2-trifluoroethyl)rhodamine]
[1]; 50 μg dye/ml
  Structures stained in living cells: Dim cytoplasmatic stain with dots
[1]; 500 μg dye/ml, listed as 42-COOH (15)
  Structures stained in living cells: Bright cytoplasmatic stain visible.
[2]; aqueous buffer at pH 7
  ABSORPTION ε: 85000 M⁻¹ cm⁻¹
  ABSORPTION λMAX: 501 nm
  EMISSION λMAX: 525 nm
  ΦFL: 0.95
  τFL: 4.1 ns
[2]; methanol
  ABSORPTION λMAX: 500 nm
  EMISSION λMAX: 524 nm

## O=C(O)c1ccc2c(c1)C1(OC2=O)c2ccc(NCC(F)(F)F)cc2Oc2cc(NCC(F)(F)F)ccc21 [15 (43-COOH), 6′-carboxy-N,N′-bis(2,2,2-trifluoroethyl)rhodamine]
[1]; 500 μg dye/ml, listed as 43-COOH (15)
  Structures stained in living cells: Nearly no stain visible.
[2]; aqueous buffer at pH 7
  ABSORPTION ε: 88000 M⁻¹ cm⁻¹
  ABSORPTION λMAX: 501 nm
  EMISSION λMAX: 523 nm
  ΦFL: 0.93
[2]; methanol
  ABSORPTION λMAX: 497 nm
  EMISSION λMAX: 522 nm

## Cl.N=c1ccc2c(-c3ccccc3C(=O)O)c3ccc(N)cc3oc-2c1 [Compound 1, rhodamine 110]
[3]; basic EtOH
  Φfl: 0.92
  λem: 524 nm
[3]; water, pH = 7
  ε × 10^−4: 8.3
  λem: 520** nm
  λmax: 496 nm

## Nc1cc2c(cc1Cl)C1(OC(=O)c3ccccc31)c1cc(Cl)c(N)cc1O2 [Compound 5]
[3]; compared with compounds 1, 3 and 4
  shift of the absorption and emission curves to the red: ca. 10 nm
[3]; water, pH = 7
  ε × 10^−4: 7.1
  λem: 525 nm
  λmax: 502 nm

## O=C1OC2(c3cc(F)c(O)cc3Oc3cc(O)c(F)cc32)c2ccccc21 [Compound 8]
[3]; 20° C.
  τ: ^7*τ = 4.1 ns (20° C.).
[3]; H2O, pH = 9
  ε × 10^−4: 8.5^4*
  λem: 518^4* nm
  λmax: 492^4* nm

## O=C(O)CSc1c(F)c(F)c(C(=O)O)c(-c2c3cc(F)c(=O)cc-3oc3cc(O)c(F)cc23)c1F [Compound 9]
[3]; compared with compounds 7 and 8
  bathochromic shift: ca. 10 nm
[3]; [7]
  ε × 10^−4: 8.6
  λem: 526 nm
  λmax: 506 nm

## Nc1cc2c(cc1F)C1(OC(=O)c3ccccc31)c1cc(F)c(N)cc1O2 [Compound 10, 2,7-Difluororhodamine]
[1]; 500 μg dye/ml
  Structures stained in living cells: High background staining visible.
[2]; aqueous buffer at pH 7
  ABSORPTION λMAX: 494 nm
  EMISSION λMAX: 520 nm
  ΦFL: 0.87
  τFL: 3.9 ns
[2]; methanol
  ABSORPTION ε: 41000 M⁻¹ cm⁻¹
  ABSORPTION λMAX: 498 nm
  EMISSION λMAX: 522 nm

## O=C1OC2(c3cc(F)c(NCC(F)(F)F)cc3Oc3cc(NCC(F)(F)F)c(F)cc32)c2ccccc21 [Compound 18, 2,7-Difluoro-N,N′-bis(2,2,2-trifluoroethyl)rhodamine]
[1]; 50 μg dye/ml
  Structures stained in living cells: Dim cytoplasmatic stain with bright
[2]; aqueous buffer at pH 7
  ABSORPTION λMAX: 494 nm
  EMISSION λMAX: 521 nm
  ΦFL: 1.00
  τFL: 3.8 ns
[2]; methanol
  ABSORPTION ε: 41000 M⁻¹ cm⁻¹
  ABSORPTION λMAX: 500 nm
  EMISSION λMAX: 519 nm
[2]; [6]
  ABSORPTION λMAX: (292)^2b nm

## CNc1cc2c(cc1F)C1(OC(=O)c3ccccc31)c1cc(F)c(NC)cc1O2 [Compound 23, 2,7-Difluoro-N,N′-dimethylrhodamine]
[1]; 50 μg dye/ml
  Structures stained in living cells: Dim cytoplasmatic stain with dots
[1]; 500 μg dye/ml
  Structures stained in living cells: Mitochondrial stain visible. Bright
[2]; aqueous buffer at pH 7
  ABSORPTION λMAX: 513 nm
  EMISSION λMAX: 539 nm
  ΦFL: 0.87
  τFL: 4.0 ns
[2]; methanol
  ABSORPTION ε: 56000 M⁻¹ cm⁻¹
  ABSORPTION λMAX: 511 nm
  EMISSION λMAX: 537 nm

## CN(CC(F)(F)F)c1cc2c(cc1F)C1(OC(=O)c3ccccc31)c1cc(F)c(N(C)CC(F)(F)F)cc1O2 [Compound 25, 2,7-Difluoro-N,N-dimethyl-N,N-bis(2,2,2-trifluoromethyl)-rhodamine]
[1]; 500 μg dye/ml
  Structures stained in living cells: Only dim stain visible.
[2]; acidic solutions
  fluorescence efficiency of the open acidic form: relatively low fluorescence efficiency
[2]; measured at pH 1
  ΦFL: (0.20)^1
  τFL: (1.2)^1 ns
[2]; measured at pH 1, aqueous
  ABSORPTION ε: (3.2)^1a (M^−1 cm^−1) × 10^−4
  ABSORPTION λMAX: 528 nm
  EMISSION λMAX: (557)^1a nm
[2]; methanol, water and neutral buffers
  colour of solutions: colorless solutions
[2]; [6]
  ABSORPTION λMAX: 300 nm

## CN(C)c1cc2c(cc1F)C1(OC(=O)c3ccccc31)c1cc(F)c(N(C)C)cc1O2 [Compound 27, 2,7-Difluoro-N,N,N′,N′-tetramethylrhodamine]
[1]; 500 μg dye/ml
  Structures stained in living cells: Red cytoplasmatic and mitochondrial
[1]; compared with aqueous buffer, Example 12, FIG. 9D
  fluorescence signal inside the living cells: considerably stronger
[2]; aqueous buffer
  fluorescence in aqueous buffer: nearly non-fluorescent
[2]; aqueous buffer at pH 7
  ABSORPTION ε: 50000 M⁻¹ cm⁻¹
  ABSORPTION λMAX: 554 nm
  EMISSION λMAX: 586 nm
  ΦFL: 0.02
  τFL: 3.3 ns
[2]; methanol
  ABSORPTION λMAX: 546 nm
  EMISSION λMAX: 576 nm

## N,N-Bis(2,2,2-trifluoroethyl)rhodamine [Compound 14]
[1]; 500 μg dye/ml
  Structures stained in living cells: Nearly no stain visible.
[2]; aqueous buffer at pH 7
  ABSORPTION ε: 81000 M⁻¹ cm⁻¹
  ABSORPTION λMAX: 499^a nm
  EMISSION λMAX: 522^ nm
  ΦFL: 0.88
  τFL: 3.9 ns
